From patent US5500430A, “Amidic derivatives of glutamic, aspartic and 2-amino adipic acids, a process for preparing same, and anti-gastrin composition containing the derivatives” (Rotta Research Laboratorium S.p.A., priority 1990, dated 1996)
Like-named read-outs stand apart in the source and are kept apart here.

Columns and labels:
[1] = system: gastric acid secretion induced by pentagastrin; test: Antisecretive activity in anaesthetised rats (pentagastrin-stimulated gastric acid secretion); type: in vivo; conditions: pentagastrin 30 mcg/Kg/h; for ED50: Rattus norvegicus, iv, anaesthetised male rats, I.V. bolus, IN with bound, read-out: Antagonistic activity (ID50) towards gastric acid secretion induced by pentagastrin; for Antigastrin activity (in words): anaesthetised rats
Protocol: Antisecretive activity in anaesthetised rats
Antisecretive activity in rats was determined with the use of male animals each weighing about 200 g, anaesthetised with urethane. Gastric secretion was stimulated with pentagastrin. The method of K. S. Lai (Gut 5, (1964), 327-341) was used, slightly modified.
After tracheotomy, cannulae were inserted in the oesophagus and the duodenum. A tepid solution. (37° C.) of 0.25 mM NaOH was perfused and passed through the stomach by means of a peristaltic pump at a constant flow rate of 1 ml/minute. After stabilisation for 20 minutes, the stimulating agent, dissolved in a physiological solution, was perfused for 120 minutes at a dose of 30 mcg/Kg/h in a volume of 0.95 ml/hour. After perfusion for 60 minutes (the basal stimulation), the product under test was administered as an intravenous bolus (I.V.) and the perfusion of the stimulant continued for a further 60 minutes. Acid secretion was recorded continuously as a function of time.
The activity of the product was evaluated as the percentage reduction in the secreted acidity after the administration of the product compared with the base acidity measured during the first 60 minutes of collection during which only the pentagastrin was present.
Different doses of the antagonist compounds tested were administered so that an ID50, that is, the dose (in mg/Kg I.V.) capable of inhibiting the effect of pentagastrin by 50%, could be calculated.
The results thus obtained are illustrated in the following table (Table 1) in which the activities of the compounds are expressed as the ID50s under the stimulus of 30 mcg/Kg/h of pentagastrin.

[2] = molecular target: T1, gastrin receptor sites on the cerebral cortex membranes of mice (Mus musculus, UniProt P56481); test: Inhibition of the binding of pentagastrin to mouse cortical membranes
T1 construct: Mouse cortical tissue; from tissue; host or cells: mouse cerebral cortex membranes
T1 sequence (P56481 1-453): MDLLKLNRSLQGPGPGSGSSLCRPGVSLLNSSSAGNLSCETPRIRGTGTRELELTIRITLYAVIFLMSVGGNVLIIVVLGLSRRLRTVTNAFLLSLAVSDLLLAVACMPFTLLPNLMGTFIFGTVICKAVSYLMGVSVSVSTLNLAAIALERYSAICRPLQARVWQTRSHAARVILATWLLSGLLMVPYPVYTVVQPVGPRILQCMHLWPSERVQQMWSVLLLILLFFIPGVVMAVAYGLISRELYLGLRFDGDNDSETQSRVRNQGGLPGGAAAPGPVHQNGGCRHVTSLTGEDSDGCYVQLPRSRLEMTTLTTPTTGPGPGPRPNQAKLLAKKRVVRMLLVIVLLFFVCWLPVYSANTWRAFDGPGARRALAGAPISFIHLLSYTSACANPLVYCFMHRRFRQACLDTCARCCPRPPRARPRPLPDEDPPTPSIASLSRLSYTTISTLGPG
Description: Tests on binding to cerebral cortex membranes of mice
The capacities of some of the compounds of the invention to inhibit the binding of pentagastrin to the gastrin receptor sites on the cerebral cortex membranes of mice was to be evaluated. Pentagastrin tritiate[beta-alanyl-3-3H(N)] was used as the ligand.
Mouse cortical tissue Was homogenised cold in 20 volumes of tris buffer (pH 7.7). After washing and centrifuging, the final pellet was resuspended in 20 volumes of binding buffer containing, inter alia, TRIS, BSA and Bacitracin. 0.4 ml of the membrane thus obtained were then incubated with a radioactive tracer and the compounds under test for 40 minutes at 37° C.
After the supernatant liquid had been removed by centrifuging, the radioactivity associated with the pellet was determined with a liquid scintillator (a beta-counter). The specific binding was the difference between the binding in the absence and in the presence of 10^-5M pentagastrin.

[3] = system: guinea-pig gall bladder contracted with CCK-8; test: Anticholecystokinin (anti-CCK) activity on guinea-pig gall bladders stimulated by CCK-8 in vitro; conditions: for Anti-CCK activity IC50: CCK-8 concentration 10 ng/ml, Krebs, 32° C.; for Antagonism of contracturant activity of CCK-8 relative to lorglumide (in words): vs lorglumide
Protocol: Anticholecystokinin (anti-cc, K) activity
In order to confirm the hypothesis that the molecular conformations of the compounds of the invention are suitable to provide them with antagonistic activity towards CCK as well as towards gastrin, the anticontracturant activities of some of the compounds of the invention were tested on guinea-pig gall bladders stimulated by CCK-8 in vitro.
A longitudinal strip of guinea-pig gall bladder was placed in a bath for isolated organs in the presence of Krebs at a temperature of 32° C. and oxygenated continuously with an oxygen-CO2 mixture (95-5 V/V).
The isometric contractions were detected by means of a force transducer and recorded.
The gall bladder was contracted with the use of a concentration of 10 ng/ml of CCK-8; the antagonistic activities of the compounds towards the contracturant effect of the CCK was determined with the use of different concentrations, thus determining the IC50 values, that is, the concentration of the compound in mcg/ml which can antagonise the contracturant effect of CCK by 50%.

[4] = pentagastrin tritiate ligand, 40 minutes at 37° C., read-out: IC50, inhibition of the binding of pentagastrin

With `O=C(O)CC[C@@H](NC(=O)c1cccnc1Cl)C(=O)N1CCC2(CCCC2)CC1` [Compound C25] the ED50 [1] was 69 mg/kg.

Work on `N#Cc1cccc(C(=O)N[C@H](CCC(=O)O)C(=O)N2CCC3(CCCC3)CC2)c1` [Compound C16] yielded an ED50 [1] of 66 mg/kg.

With `O=C(O)CCC(NC(=O)c1cccc(Cl)c1)C(=O)N1CCC2(CC1)SCCS2` (racemic) [Compound D1, (R,S) (±)-4-[(3-chlorobenzoyl)amino]-5-(1.4-dithia-8-azaspiro[4.5]decan-8-yl)-5-oxopentanoic acid] the IC50 [2, 4] was 2600 nM and the ED50 [1] was over 75 mg/kg.

`O=C(O)CC[C@@H](NC(=O)c1cccc(Cl)c1)C(=O)N1CCC2(CCCCC2)C1` [Compound C4] was tested, and the ED50 [1] was 49 mg/kg.

Work on `Cc1cccc(C(=O)N[C@H](CCC(=O)O)C(=O)N2CCC3(CCCC3)CC2)c1` [Compound C11] yielded an ED50 [1] of 38 mg/kg.

For `O=C(O)CC[C@@H](NC(=O)c1cccc(Cl)c1)C(=O)N1CCC2(CCCCC2)CC1` [Compound C2], the IC50 [2, 4] was 140 nM, the ED50 [1] was 33 mg/kg and the “Anti-CCK activity IC50” value [3] was 4.9 µg/mL.

In the case of `O=C(O)CC[C@@H](NC(=O)c1cnc2ccccc2c1)C(=O)N1CCC2(CCCCC2)CC1` [Compound C21], the IC50 [2, 4] is reported as 510 nM, the ED50 [1] is reported as over 75 mg/kg and the “Anti-CCK activity IC50” value [3] is reported as 0.2 µg/mL. The “Antagonism of contracturant activity of CCK-8 relative to lorglumide (in words)” value [3] was “at concentrations no greater than those shown by lorglumide”.

For `O=C(O)CC[C@@H](NC(=O)c1cc(Cl)cc(Cl)c1)C(=O)NCCC12CC3CC(CC(C3)C1)C2` [Compound C31], the ED50 [1] was 20 mg/kg and the “Antigastrin activity (in words)” value [1] was “particularly favourable”.

`O=C(O)CC[C@@H](NC(=O)c1cc2ccccc2[nH]1)C(=O)N1CCC2(CCCC2)CC1` [Compound C26] was tested, and the ED50 [1] was over 75 mg/kg.

`O=C(O)CC[C@@H](NC(=O)c1cccc(Cl)c1Cl)C(=O)N1CCC2(CCCC2)CC1` [Compound C9] gave an ED50 [1] of 40 mg/kg.

With `O=C(O)CC[C@@H](NC(=O)c1ccc2ccccc2c1)C(=O)N1CCC2(CCCC2)CC1` [Compound C10] the IC50 [2, 4] was 100 nM, the ED50 [1] was 45 mg/kg and the “Anti-CCK activity IC50” value [3] was 1.0 µg/mL. For the same compound, the “Antagonism of contracturant activity of CCK-8 relative to lorglumide (in words)” value [3] was “at concentrations no greater than those shown by lorglumide”.

`O=C(O)CC[C@@H](NC(=O)c1cccc(C(F)(F)F)c1)C(=O)N1CCC2(CCCC2)CC1` [Compound C17] gave an ED50 [1] of 55 mg/kg.

`O=C(O)CC[C@@H](NC(=O)c1cccc(Cl)c1)C(=O)N1CCC2(CCCC2)C1` [Compound C3] was tested, and the ED50 [1] was 75 mg/kg and the “Anti-CCK activity IC50” value [3] was 43 µg/mL.

Work on `CC(C)c1ccc(C(=O)N[C@H](CCC(=O)O)C(=O)N2CCC3(CCCC3)CC2)cc1` [Compound C18] yielded an ED50 [1] of 28 mg/kg.

`O=C(O)CC[C@@H](NC(=O)c1cccc(Cl)c1)C(=O)N1CCC2(CC1)OCCO2` [Compound C27] gave an ED50 [1] of 81 mg/kg.

`O=C(O)CC[C@@H](NC(=O)c1ccco1)C(=O)N1CCC2(CCCC2)CC1` [Compound C24] showed an ED50 [1] of over 75 mg/kg.

For `O=C(O)CC[C@@H](NC(=O)c1cccc(Cl)c1)C(=O)N1CCC2CCCCC2C1` (stereo partly shown) [Compound C29], the IC50 [2, 4] was 800 nM, the ED50 [1] was 35 mg/kg and the “Anti-CCK activity IC50” value [3] was 234 µg/mL.

For `O=C(O)CC[C@H](NC(=O)c1cccc(Cl)c1)C(=O)N1CCC2(CCCC2)CC1` [Compound C32], the IC50 [2, 4] was 26000 nM, the ED50 [1] was over 100 mg/kg and the “Antigastrin activity (in words)” value [1] was “completely inactive up to a dose of 100 mg/Kg”.

With `O=C(O)CC[C@@H](NC(=O)c1ccc(Cl)c(Cl)c1)C(=O)N1CCC2(CCCCC2)CC1` [Compound C20] the ED50 [1] was 64 mg/kg, the “Anti-CCK activity IC50” value [3] was 0.5 µg/mL and the “Antagonism of contracturant activity of CCK-8 relative to lorglumide (in words)” value [3] was “at concentrations no greater than those shown by lorglumide”.

`O=C(O)CC[C@@H](NC(=O)c1cccc(Cl)c1)C(=O)NCCC12CC3CC(CC(C3)C1)C2` [Compound C30] was tested, and the IC50 [2, 4] was 30 nM, the ED50 [1] was 25 mg/kg and the “Antigastrin activity (in words)” value [1] was “particularly favourable”. The “Anti-CCK activity IC50” value [3] was 59 µg/mL.

`O=C(O)CCC(NC(=O)c1cccc(Cl)c1)C(=O)NC1CCC2CCCCC2C1` (stereo not shown) [Compound D6] gave an ED50 [1] of 60 mg/kg.

`O=C(O)CC[C@@H](NC(=O)c1cccc(Cl)c1)C(=O)NC1CCC2(CCCCC2)CC1` [Compound C22] gave an ED50 [1] of 55 mg/kg.

Compound `Cc1cc(C)cc(C(=O)N[C@H](CCC(=O)O)C(=O)N2CCC3(CCCC3)CC2)c1` [Compound C13] has an ED50 [1] of 33 mg/kg.

`CCc1cccc(C(=O)N[C@H](CCC(=O)O)C(=O)N2CCC3(CCCC3)CC2)c1` [Compound C12] showed an ED50 [1] of 38 mg/kg.

`CCCCCN(CCCCC)C(=O)C(CCC(=O)O)NC(=O)c1ccc(Cl)c(Cl)c1` (stereo not shown) [Lorglumide, lorglumide, reference compound] was tested, and the ED50 [1] was over 100 mg/kg, the “Antigastrin activity (in words)” value [1] was “completely inactive up to a dose of 100 mg/Kg” and the “Anti-CCK activity IC50” value [3] was 0.06 µg/mL.

In the case of `O=C(O)CC(NC(=O)c1cccc(Cl)c1)C(=O)N1CCC2(CCCC2)CC1` (stereo not shown) [Compound D4], the IC50 [2, 4] is reported as 6800 nM, the ED50 [1] is reported as 70 mg/kg and the “Anti-CCK activity IC50” value [3] is reported as 36 µg/mL.

In the case of `O=C(O)CCC(NC(=O)c1cccc(Cl)c1)C(=O)N1CCC2(CC1)OCC(CO)O2` (stereo not shown) [Compound D2], the IC50 [2] is reported as over 10000 nM, the ED50 [1] is reported as 85 mg/kg and the “Anti-CCK activity IC50” value [3] is reported as 108 µg/mL.

`CCCN(CCC)C(=O)C(CCC(=O)O)NC(=O)c1ccccc1` (stereo not shown) [Proglumide, proglumide, reference compound] was tested, and the ED50 [1] was 500 mg/kg.

With `COc1cccc(C(=O)N[C@H](CCC(=O)O)C(=O)N2CCC3(CCCC3)CC2)c1` [Compound C15] the ED50 [1] was 46 mg/kg.

`O=C(O)CC[C@@H](NC(=O)c1cccc([N+](=O)[O-])c1)C(=O)N1CCC2(CCCC2)CC1` [Compound C14] showed an IC50 [2, 4] of 8100 nM and an ED50 [1] of 68 mg/kg.

With `O=C(O)CC[C@@H](NC(=O)c1cc(Cl)cc(Cl)c1)C(=O)NC1CCC2(CCCCC2)CC1` [Compound C23] the IC50 [2, 4] was 320 nM and the ED50 [1] was 40 mg/kg.

For `O=C(O)CC[C@@H](NC(=O)c1cc(Cl)cc(Cl)c1)C(=O)N1CCC2(CCCCC2)C1` [Compound C6], the IC50 [2, 4] was 320 nM and the ED50 [1] was 45 mg/kg.

`O=C(O)CCC(NC(=O)c1cc(Cl)cc(Cl)c1)C(=O)NC1CCC2CCCCC2C1` (stereo not shown) [Compound D7] gave an ED50 [1] of 48 mg/kg.

Compound `O=C(O)CC[C@@H](NC(=O)c1cc(Cl)cc(Cl)c1)C(=O)N1CCC2(CCCC2)C1` [Compound C7] has an ED50 [1] of 60 mg/kg.

For `O=C(O)CCCC(NC(=O)c1cccc(Cl)c1)C(=O)N1CCC2(CCCC2)CC1` (stereo not shown) [Compound D5], the IC50 [2, 4] was 1500 nM and the ED50 [1] was 32 mg/kg.

In the case of `O=C(O)CC[C@@H](NC(=O)c1cc(Cl)cc(Cl)c1)C(=O)N1CCC2(CC1)OCCO2` [Compound C28], the ED50 [1] is reported as 70 mg/kg.

In the case of `O=C(O)CC[C@@H](NC(=O)c1cnc2ccccc2c1)C(=O)N1CCC2(CCCC2)CC1` [Compound C19], the ED50 [1] is reported as 68 mg/kg, the “Anti-CCK activity IC50” value [3] is reported as 1.5 µg/mL and the “Antagonism of contracturant activity of CCK-8 relative to lorglumide (in words)” value [3] is reported as “at concentrations no greater than those shown by lorglumide”.

Compound `O=C(O)CCC(NC(=O)c1cccc(Cl)c1)C(=O)N1CCC2(CC1)OCCS2` (stereo not shown) [Compound D3] has an ED50 [1] of 67 mg/kg.
